Experimental data: EP3227262B1, “SULFIDE ALKYL AND PYRIDYL REVERSE SULFONAMIDE COMPOUNDS FOR HBV TREATMENT” (Novira Therapeutics Inc., priority 2014, dated 2016)

Experiments:
HBV [1] = assay: Inhibition of HBV replication dot-blot assay in HBV-producing hepatoma cell line; type: cell-based; conditions: Hepatitis B virus, 144 h; activity in Dot-Blot assay; HepG2-2.2.15 cells; reduction in HBV DNA levels, six days
Method: Compounds active in the HBV assembly assay are tested for their activity and toxicity in cellular assay. In the first anti-viral assay, the ability of compounds to inhibit HBV replication in an HBV-producing hepatoma cell line using the dot-blot method is evaluated.
(§1) Briefly, confluent monolayers of HepG2-2.2.15 cells are incubated with complete medium containing various concentrations of a test compound. Three days later, the culture medium is replaced with fresh medium containing the appropriately diluted test compound. Six days following the initial administration of the test compound, the cell culture supernatant is collected, and cell lysis is performed. The samples are applied onto Nylos membranes and DNA is immobilized to the membrane by UV cross-linking. After pre-hybridization, the HBV probe is added and the hybridization is performed overnight. The membranes are exposed to the KODAK films; antiviral activity is calculated from the reduction in HBV DNA levels (EC50). The EC50 for antiviral activity is calculated from the dose response curves of active compounds. Assay performance over time is monitored by the use of the standard positive control compounds ETV, BAY 41-4109, and HAP-1.
Selected compounds are tested for their activity and toxicity in cellular assay. In the first anti-viral assay, the ability of compounds to inhibit HBV replication in an HBV-producing hepatoma cell line using the dot-blot method is evaluated.
as §1, with “Confluent monolayers” for “Briefly, confluent monolayers”, “lysis was” for “lysis is”

HBV [2] = assay: HBV replication inhibition assay (encapsidated HBV DNA in supernatant, bDNA QuantiGene); type: cell-based; conditions: Hepatitis B virus, 144 h, HepG2.2.15 cells, supernatant at day 6, read-out: Extra HBV DNA

Row | SMILES | EC50 (HBV [1]) | EC50 (HBV [2])
1 | O=C(Nc1ccc(F)c(Cl)c1)c1cccc(SCCO)c1 [Compound 36, N-(3-Chloro-4-fluorophenyl)-3-((2-hydroxyethyl)thio)benzamide] | < 10 µM | 1.34 µM
2 | O=C(Nc1ccc(F)c(F)c1)c1ccc(F)c(SC2CCC(C(=O)O)CC2)c1 (mixture of isomers) [Compound 63, (cis/trans)-4-((S-((3,4-Difluorophenyl)carbamoyl)-2-fluorophenyl)thio)cyclohexanecarboxylic acid] | < 10 µM | 1.6 µM
3 | O=C(Nc1ccc(F)c(Cl)c1)c1cccc(S[C@H]2CCCC[C@@H](O)C2)c1 (racemic) [Compound 39A, (±)-N-(3-Chloro-4-fluorophenyl)-3-(((1S,3R)-3-hydroxycycloheptyl)thio)benzamide] | – | 1.29 µM
4 | O=C(Nc1ccc(F)c(Cl)c1)c1cncc(NS(=O)(=O)C2CC2)c1 [Compound 125, N-(3-Chloro-4-fluorophenyl)-5-(cyclopropanesulfonamido)nicotinamide] | < 10 µM | 2.1 µM
5 | O=C(Nc1ccc(F)c(Cl)c1)c1cccc(SC2CCCCC2)c1 [Compound 35, N-(3-Chloro-4-fluorophenyl)-3-(cyclohexylthio)benzamide] | < 10 µM | 1.21 µM
6 | O=C(Nc1ccc(F)c(Cl)c1)c1cccc(NS(=O)(=O)C2CC2)n1 [Compound 123, N-(3-Chloro-4-fluorophenyl)-6-(cyclopropanesulfonamido)picolinamide] | < 10 µM | 3 µM
7 | CCc1ccc(CS(=O)(=O)Nc2cc(C(=O)Nc3ccc(F)c(F)c3)ccn2)cc1 [Compound 181, N-(3,4-Difluorophenyl)-2-((4-ethylphenyl)methylsulfonamido)isonicotinamide] | < 10 µM | 0.7 µM
8 | O=C1CCCCC(Sc2cccc(C(=O)Nc3ccc(F)c(Cl)c3)c2)C1 (racemic) [Compound 38, (±)-N-(3-Chloro-4-fluorophenyl)-3-((3-oxocycloheptyl)thio)benzamide] | – | 1.27 µM
9 | O=C(Nc1ccc(F)c(Cl)c1)c1cc(NS(=O)(=O)C2CC2)ccn1 [Compound 126, N-(3-Chloro-4-fluorophenyl)-4-(cyclopropanesulfonamido)picolinamide] | – | 1 µM
10 | CS(=O)(=O)NC(=O)[C@H]1CC[C@@H](Sc2cc(C(=O)Nc3cc(F)c(F)c(F)c3)ccc2F)CC1 [Compound 100, 4-Fluoro-3-(((1S,4S)-4-((methylsulfonyl)carbamoyl)cyclohexyl)thio)-N-(3,4,5-trifluorophenyl)benzamide] | < 10 µM | 1.7 µM
11 | O=C(Nc1ccc(F)c(Cl)c1)c1cccc(S[C@@H]2CCCC[C@@H](O)C2)c1 (racemic) [Compound 39B, (±)-N-(3-Chloro-4-fluorophenyl)-3-(((1R,3R)-3-hydroxycycloheptyl)thio)benzamide] | – | 1.29 µM
12 | O=C(Nc1ccc(F)c(Cl)c1)c1cccc(SCCCO)c1 [Compound 40, N-(3-Chloro-4-fluorophenyl)-3-((3-hydroxypropyl)thio)benzamide] | – | 0.76 µM
13 | O=C(Nc1cc(F)c(F)c(F)c1)c1ccc(F)c(S[C@@H]2CCCC[C@@H](O)C2)c1 (racemic) [Compound 14B, (±)-4-Fluoro-3-(((1R,3R)-3-hydroxycycloheptyl)thio)-N-(3,4,5-trifluorophenyl)benzamide] | < 10 µM | –
14 | O=C(Nc1ccc(F)c(Cl)c1)c1ccc(F)c(SCC2CCOC2)c1 (racemic) [Compound 46, (±)-N-(3-Chloro-4-fluorophenyl)-4-fluoro-3-(((tetrahydrofuran-3-yl)methyl)thio)benzamide] | < 10 µM | –
15 | O=C(Nc1ccc(F)c(Cl)c1)c1cc(F)nc(NS(=O)(=O)c2ccccc2)c1 [Compound 138, N-(3-Chloro-4-fluorophenyl)-2-fluoro-6-(phenylsulfonamido)isonicotinamide] | < 10 µM | –
16 | O=C(Nc1ccc(F)c(Cl)c1)c1ccc(F)c(SC2CCCCC2F)c1 (racemic) [Compound 72, (±)-N-(3-Chloro-4-fluorophenyl)-4-fluoro-3-((2-fluorocyclohexyl)thio)benzamide] | < 10 µM | –
17 | Cc1cc(NC(=O)c2ccc(F)c(SC3CCCCC3)c2)ccc1F [Compound 8, 3-(Cyclohexylthio)-4-fluoro-N-(4-fluoro-3-methylphenyl)benzamide] | < 10 µM | –

Row | SMILES | EC50 (HBV [1]) | EC50 (HBV [2])
18 | CC(C)(C)S(=O)(=O)Nc1cc(C(=O)Nc2ccc(F)c(Cl)c2)ccn1 [Compound 154, N-(3-Chloro-4-fluorophenyl)-2-(1,1-dimethylethylsulfonamido)isonicotinamide] | < 10 µM | –
19 | O=C(O)CC1CCC(Sc2cc(C(=O)Nc3ccc(F)c(Cl)c3)ccc2F)CC1 (mixture of isomers) [Compound 106, (cis/trans)-2-(4-((5-((3-Chloro-4-fluorophenyl)carbamoyl)-2-fluorophenyl)thio)cyclohexyl)acetic acid] | < 10 µM | –
20 | COc1ccc(CCS(=O)(=O)Nc2cc(C(=O)Nc3ccc(F)c(Cl)c3)ccn2)cc1 [Compound 173, N-(3-Chloro-4-fluorophenyl)-2-(2-(4-methoxyphenyl)ethylsulfonamido)isonicotinamide] | < 10 µM | –
21 | O=C(Nc1ccc(F)c(Cl)c1)c1cc(NS(=O)(=O)C2CC2)ncc1F [Compound 144, N-(3-Chloro-4-fluorophenyl)-2-(cyclopropanesulfonamido)-5-fluoroisonicotinamide] | < 10 µM | –
22 | O=C(Nc1ccc(F)c(Cl)c1)c1cccc(SC2CCC(O)CC2)c1 (mixture of isomers) [Compound 34, (cis/trans)-N-(3-Chloro-4-fluorophenyl)-3-((4-hydroxycyclohexyl)thio)benzamide] | < 10 µM | –
23 | O=C(Nc1ccc(F)c(Cl)c1)c1ccc(F)c(SCCO)c1 [Compound 26, N-(3-Chloro-4-fluorophenyl)-4-fluoro-3-((2-hydroxyethyl)thio)benzamide] | < 10 µM | –
24 | O=C(Nc1cc(F)c(F)c(F)c1)c1ccc(F)c(SC2CCC(C(=O)N3CCCCC3)CC2)c1 (mixture of isomers) [Compound 104, (cis/trans)-4-Fluoro-3-((4-(piperidine-1-carbonyl)cyclohexyl)thio)-N-(3,4,5-trifluorophenyl)benzamide] | < 10 µM | –
25 | O=C(Nc1ccc(F)c(Cl)c1)c1ccc(F)c(S[C@@H]2CCC[C@@H](O)C2)c1 (racemic) [Compound 21, (±)-N-(3-Chloro-4-fluorophenyl)-4-fluoro-3-(((1R,3R)-3-hydroxycyclohexyl)thio)benzamide] | < 10 µM | –
26 | CC1OCCC1S(=O)(=O)Nc1cccc(C(=O)Nc2ccc(F)c(Cl)c2)c1 (racemic) [Compound 205, (±)-N-(3-chloro-4-fluorophenyl)-3-(2-methyltetrahydrofuran-3-sulfonamido)benzamide] | < 10 µM | –
27 | O=C(Nc1ccc(F)c(Cl)c1)c1cccc(NS(=O)(=O)c2cn[nH]c2)c1 [Compound 200, N-(3-chloro-4-fluorophenyl)-3-(1H-pyrazole-4-sulfonamido)benzamide] | < 10 µM | –
28 | Cc1cc(NC(=O)c2ccc(F)c(NS(=O)(=O)c3ccn(C)n3)c2)ccc1F [Compound 197, 4-fluoro-N-(4-fluoro-3-methylphenyl)-3-(1-methyl-1H-pyrazole-3-sulfonamido)benzamide] | < 10 µM | –
29 | Cc1ccc(C(=O)Nc2cc(F)c(F)c(F)c2)cc1SC1CCC(O)CC1 (mixture of isomers) [Compound 77, (cis/trans)-3-((4-Hydroxycyclohexyl)thio)-4-methyl-N-(3,4,5-trifluorophenyl)benzamide] | < 10 µM | –
30 | O=C1CCCC(Sc2cc(C(=O)Nc3ccc(F)c(Cl)c3)ccc2F)C1 (racemic) [Compound 20, (±)N-(3-Chloro-4-fluorophenyl)-4-fluoro-3-((3-oxocyclohexyl)thio)benzamide] | < 10 µM | –
31 | O=C(Nc1ccc(F)c(F)c1)c1ccc(F)c(SC2CC(C(=O)O)C2)c1 (mixture of isomers) [Compound 59, (cis/trans)-3-((5-((3,4-Difluorophenyl)carbamoyl)-2-fluorophenyl)thio)cyclobutanecarboxylic acid] | < 10 µM | –
32 | COCC(C)S(=O)(=O)Nc1cccc(C(=O)Nc2ccc(F)c(Cl)c2)c1 (racemic) [Compound 204, (±)-N-(3-chloro-4-fluorophenyl)-3-(2-methoxy-1-methylethylsulfonamido)benzamide] | < 10 µM | –
33 | CC(C)(O)CS(=O)(=O)Nc1cc(C(=O)Nc2ccc(F)c(Cl)c2)ccn1 [Compound 156, N-(3-Chloro-4-fluorophenyl)-2-(2-hydroxy-2-methylpropylsulfonamido) isonicotinamide] | < 10 µM | –
34 | O=C(Nc1ccc(F)c(Cl)c1)c1ccc(Cl)c(SC2CCC(O)CC2)c1 (mixture of isomers) [Compound 75, (cis/trans)-4-Chloro-N-(3-chloro-4-fluorophenyl)-3-((4-hydroxycyclohexyl)thio)benzamide] | < 10 µM | –
